Measurements: patent US8697739B2, “Bicyclic acetyl-CoA carboxylase inhibitors and uses thereof” (Novartis AG, priority 2010, dated 2014)

Biological target: T1, human acetyl-CoA carboxylase 2 (ACC2) (Homo sapiens, UniProt O00763)
T1 construct: The cDNA encoding amino acids 144 to 2458 of human acetyl-CoA carboxylase 2; made in house; host or cells: Sf9 insect cells (baculovirus, pFastBac1)
Assay: Acetyl-CoA carboxylase enzyme assay (malonyl-CoA formation by LC/MS/MS)
Assay type: biochemical
Details: recombinant human ACC2 (aa 144-2458); read-out: IC50 ACC2
Procedure, shortened: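 Malonyl-CoA formation was read by LC/MS/MS MRM against a [13C3]-malonyl-CoA internal standard, after acetic acid quench. The enzyme was baculovirus/Sf9-expressed human ACC2 residues 144–2458, given 15 minutes room-temperature compound preincubation in HEPES pH 7.5 buffer with MgCl2, citrate and DTT. Substrate solution held 50 μM acetyl-CoA, 120 μM ATP and 2 mM KHCO3.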

T1 sequence (O00763 144-2458): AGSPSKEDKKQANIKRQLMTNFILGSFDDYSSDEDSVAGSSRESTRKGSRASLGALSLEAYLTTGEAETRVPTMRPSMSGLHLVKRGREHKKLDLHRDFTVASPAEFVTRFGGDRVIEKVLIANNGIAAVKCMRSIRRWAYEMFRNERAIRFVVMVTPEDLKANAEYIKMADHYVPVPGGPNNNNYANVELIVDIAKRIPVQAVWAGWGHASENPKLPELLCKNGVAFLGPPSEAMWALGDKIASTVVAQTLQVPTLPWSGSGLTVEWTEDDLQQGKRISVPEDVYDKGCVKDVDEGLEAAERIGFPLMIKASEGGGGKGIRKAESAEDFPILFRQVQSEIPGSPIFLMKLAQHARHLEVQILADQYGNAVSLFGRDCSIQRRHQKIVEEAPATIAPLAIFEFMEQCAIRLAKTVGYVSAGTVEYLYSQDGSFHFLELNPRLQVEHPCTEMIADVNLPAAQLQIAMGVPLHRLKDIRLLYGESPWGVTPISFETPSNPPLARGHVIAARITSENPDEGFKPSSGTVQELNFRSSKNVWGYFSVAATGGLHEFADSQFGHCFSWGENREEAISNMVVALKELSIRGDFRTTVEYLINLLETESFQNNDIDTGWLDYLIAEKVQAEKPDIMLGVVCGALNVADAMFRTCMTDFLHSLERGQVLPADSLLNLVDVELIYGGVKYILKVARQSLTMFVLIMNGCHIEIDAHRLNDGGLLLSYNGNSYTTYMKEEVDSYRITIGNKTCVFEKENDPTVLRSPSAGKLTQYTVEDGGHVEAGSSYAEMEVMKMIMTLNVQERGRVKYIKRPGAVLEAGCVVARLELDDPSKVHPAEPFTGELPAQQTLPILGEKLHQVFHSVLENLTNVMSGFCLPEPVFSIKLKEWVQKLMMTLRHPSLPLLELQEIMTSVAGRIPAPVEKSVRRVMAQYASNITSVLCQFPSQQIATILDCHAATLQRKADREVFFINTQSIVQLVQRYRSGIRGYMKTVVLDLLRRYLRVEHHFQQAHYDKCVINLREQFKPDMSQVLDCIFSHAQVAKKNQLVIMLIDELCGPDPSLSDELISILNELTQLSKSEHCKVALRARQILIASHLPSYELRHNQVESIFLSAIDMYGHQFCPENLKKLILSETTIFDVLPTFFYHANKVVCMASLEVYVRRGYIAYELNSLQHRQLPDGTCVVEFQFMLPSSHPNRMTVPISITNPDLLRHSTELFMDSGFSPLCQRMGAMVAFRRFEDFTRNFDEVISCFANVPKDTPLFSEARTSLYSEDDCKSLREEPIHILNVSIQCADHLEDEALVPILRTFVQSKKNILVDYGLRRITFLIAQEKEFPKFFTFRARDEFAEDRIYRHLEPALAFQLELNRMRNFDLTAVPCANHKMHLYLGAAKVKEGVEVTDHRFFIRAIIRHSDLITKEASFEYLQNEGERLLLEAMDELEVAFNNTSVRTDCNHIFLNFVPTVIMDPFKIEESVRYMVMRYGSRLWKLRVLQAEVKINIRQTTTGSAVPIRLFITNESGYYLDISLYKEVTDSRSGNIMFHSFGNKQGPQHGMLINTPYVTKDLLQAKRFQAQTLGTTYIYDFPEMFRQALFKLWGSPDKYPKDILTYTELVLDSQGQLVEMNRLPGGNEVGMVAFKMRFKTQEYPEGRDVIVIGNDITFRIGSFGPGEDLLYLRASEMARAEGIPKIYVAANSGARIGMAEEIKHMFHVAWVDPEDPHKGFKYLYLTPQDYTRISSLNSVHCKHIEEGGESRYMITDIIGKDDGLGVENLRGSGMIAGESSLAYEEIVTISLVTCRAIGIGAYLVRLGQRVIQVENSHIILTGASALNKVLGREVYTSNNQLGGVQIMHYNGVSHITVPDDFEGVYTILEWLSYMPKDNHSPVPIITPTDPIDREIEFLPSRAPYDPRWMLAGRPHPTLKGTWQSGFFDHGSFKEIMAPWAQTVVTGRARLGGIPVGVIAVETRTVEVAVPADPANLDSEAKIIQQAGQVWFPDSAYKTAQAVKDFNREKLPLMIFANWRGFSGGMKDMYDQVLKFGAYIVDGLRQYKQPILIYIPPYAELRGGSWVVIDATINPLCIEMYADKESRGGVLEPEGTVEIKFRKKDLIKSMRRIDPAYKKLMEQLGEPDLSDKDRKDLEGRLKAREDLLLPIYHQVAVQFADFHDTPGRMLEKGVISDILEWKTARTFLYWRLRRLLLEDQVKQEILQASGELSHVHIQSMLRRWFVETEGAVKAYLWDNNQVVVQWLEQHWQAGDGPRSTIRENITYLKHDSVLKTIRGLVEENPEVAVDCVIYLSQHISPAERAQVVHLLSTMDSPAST

Compound	IC50 [nM]
COC(=O)[C@H]1CC[C@H](NS(=O)(=O)c2ccc3nc(-c4cc(C)nc(C)c4)ccc3c2)CC1 [Example 252, (1r,4r)-methyl 4-(2-(2,6-dimethylpyridin-4-yl)quinoline-6-sulfonamido)cyclohexanecarboxylate]	> 35000
Cc1cc(-c2ccc3cc(S(=O)(=O)N[C@H]4CC[C@H](C(=O)N5CCNC[C@H]5c5ccccc5)CC4)ccc3n2)cc(C)n1 [Example 257, 2-(2,6-dimethylpyridin-4-yl)-N-((1R,4r)-4-((R)-2-phenylpiperazine-1-carbonyl)cyclohexyl)quinoline-6-sulfonamide]	50
CN1CCN(c2ccc3cc(S(=O)(=O)N[C@H]4CC[C@H](C(=O)N[C@H](c5ccccc5)C(C)(C)O)CC4)ccc3n2)CC1 [Example 258, (1r,4R)-N-((R)-2-hydroxy-2-methyl-1-phenylpropyl)-4-(2-(4-methylpiperazin-1-yl)quinoline-6-sulfonamido)cyclohexanecarboxamide]	80
CN1CCN(c2ccc3cc(S(=O)(=O)NC4CCC(C(=O)N5CCNCC5c5ccccc5)CC4)ccc3n2)CC1 (centres unmarked) [Example 259, 2-(4-methylpiperazin-1-yl)-N-((1r,4r)-4-(2-phenylpiperazine-1-carbonyl)cyclohexyl)quinoline-6-sulfonamide]	450
CC(C)[C@H]1COCCN1C(=O)[C@H]1CC[C@H](NS(=O)(=O)c2ccc3nc(N4CCN(C)CC4)ccc3c2)CC1 [Example 260, N-((1S,4r)-4-((S)-3-isopropylmorpholine-4-carbonyl)cyclohexyl)-2-(4-methylpiperazin-1-yl)quinoline-6-sulfonamide]	2960
Cc1cc(-c2ccc3cc(S(=O)(=O)N[C@H]4CC[C@H](C(=O)N5CCOC[C@@H]5C(C)C)CC4)ccc3n2)cc(C)n1 [Example 261, 2-(2,6-dimethylpyridin-4-yl)-N-((1S,4r)-4-((S)-3-isopropylmorpholine-4-carbonyl)cyclohexyl)quinoline-6-sulfonamide]	460
COC(=O)C12CC3CC(C1)C(NS(=O)(=O)c1ccc4oc5ccccc5c4c1)C(C3)C2 (centres unmarked) [Example 265, 4-(Dibenzofuran-2-sulfonylamino)-adamantane-1-carboxylic acid methyl ester]	685
CCOc1ccc2cc(S(=O)(=O)N[C@H]3CC[C@H](C(=O)N[C@H](COC(=O)[C@@H](N)C(C)C)c4ccccc4)CC3)ccc2n1 [Example 266, (S)-((S)-2-((1r,4S)-4-(2-ethoxyquinoline-6-sulfonamido)cyclohexanecarboxamido)-2-phenylethyl) 2-amino-3-methylbutanoate]	140
COC(=O)[C@H]1CC[C@H](CNS(=O)(=O)c2ccc3oc4ccccc4c3c2)CC1 [Example 267, (1r,4r)-methyl 4-((dibenzo[b,d]furan-2-sulfonamido)methyl)cyclohexanecarboxylate]	> 35000
CCOc1ccc2cc(S(=O)(=O)N[C@H]3CC[C@H](C(=O)N[C@H](COP(=O)(OC(C)(C)C)OC(C)(C)C)c4ccccc4)CC3)ccc2n1 [Example 268, di-tert-butyl (S)-2-((1r,4S)-4-(2-ethoxyquinoline-6-sulfonamido)cyclohexanecarboxamido)-2-phenylethyl phosphate]	435
CCOc1ccc2cc(S(=O)(=O)N[C@H]3CC[C@H](C(=O)N[C@H](COP(=O)(O)O)c4ccccc4)CC3)ccc2n1 [Example 269, (S)-2-((1r,4S)-4-(2-ethoxyquinoline-6-sulfonamido)cyclohexanecarboxamido)-2-phenylethyl dihydrogen phosphate]	25200
C[C@@H](NC(=O)C12CCC(NS(=O)(=O)c3cnc4c(c3)NCCN4)(CC1)CC2)c1ccc(F)cc1 [Example 270, (R)-N-(1-(4-fluorophenyl)ethyl)-4-(1,2,3,4-tetrahydropyrido[3,2-b]pyrazine-7-sulfonamido)bicyclo[2.2.2]octane-1-carboxamide]	165
CCOc1ccc2cc(S(=O)(=O)NC3CCC(C(=O)NC(c4ccccc4)C(C)OC(=O)C(N)C(C)C)CC3)ccc2n1 [Example 271, (S)-((1S,2S)-1-((1r,4S)-1-((1r,4S)-4-(2-ethoxyquinoline-6-sulfonamido)cyclohexanecarboxamido)-1-phenylpropan-2-yl) 2-amino-3-methylbutanoate]	195
O=C(N[C@@H](c1ccccc1)C(F)(F)F)[C@H]1CC[C@H](NS(=O)(=O)c2ccc3[nH]c(-c4ccccc4)nc3c2)CC1 [Example 274, (1r,4S)-4-(2-phenyl-1H-benzo[d]imidazole-5-sulfonamido)-N-((S)-2,2,2-trifluoro-1-phenylethyl)cyclohexanecarboxamide]	4030
C[C@@H](NC(=O)[C@H]1CC[C@H](NS(=O)(=O)c2ccc3[nH]c(C4CC4)nc3c2)CC1)c1ccccc1 [Example 277, (1r,4R)-4-(2-cyclopropyl-1H-benzo[d]imidazole-5-sulfonamido)-N-((R)-1-phenylethyl)cyclohexanecarboxamide]	80
C[C@@H](NC(=O)[C@H]1CC[C@H](NS(=O)(=O)c2ccc3[nH]c(-c4ccc(C(=O)O)cc4)nc3c2)CC1)c1ccccc1 [Example 278, 4-(5-(N-((1R,4r)-4-((R)-1-phenylethylcarbamoyl)cyclohexyl)sulfamoyl)-1H-benzo[d]imidazol-2-yl)benzoic acid]	66
C[C@@H](NC(=O)[C@H]1CC[C@H](NS(=O)(=O)c2ccc3[nH]c(-c4cccc(C(=O)O)c4)nc3c2)CC1)c1ccccc1 [Example 279, 3-(5-(N-((1R,4r)-4-((R)-1-phenylethylcarbamoyl)cyclohexyl)sulfamoyl)-1H-benzo[d]imidazol-2-yl)benzoic acid]	100

Stronger by IC50, values ahead:

IC50 [nM]	Compound
20	Cc1cc(-c2ccc3cc(S(=O)(=O)N[C@H]4CC[C@H](C(=O)NC(c5ccccc5)C(C)(C)O)CC4)ccc3n2)cc(C)n1 (some centres unmarked) [Example 253, (1r,4r)-4-(2-(2,6-dimethylpyridin-4-yl)quinoline-6-sulfonamido)-N-(2-hydroxy-2-methyl-1-phenylpropyl)cyclohexanecarboxamide]
20	Cc1cc(-c2ccc3cc(S(=O)(=O)N[C@H]4CC[C@H](C(=O)N5CCNCC5c5ccccc5)CC4)ccc3n2)cc(C)n1 (some centres unmarked) [Example 254, 2-(2,6-dimethylpyridin-4-yl)-N-((1r,4r)-4-(2-phenylpiperazine-1-carbonyl)cyclohexyl)quinoline-6-sulfonamide]
15	CC(C)(C)OC(=O)N1CCN(C(=O)[C@H]2CC[C@H](NS(=O)(=O)c3ccc4oc5ccccc5c4c3)CC2)[C@@H](c2ccccc2)C1 [Example 255, (S)-tert-butyl 4-((1r,4S)-4-(dibenzo[b,d]furan-2-sulfonamido)cyclohexanecarbonyl)-3-phenylpiperazine-1-carboxylate]
20	O=C([C@H]1CC[C@H](NS(=O)(=O)c2ccc3oc4ccccc4c3c2)CC1)N1CCNC[C@@H]1c1ccccc1 [Example 256, N-((1S,4r)-4-((S)-2-phenylpiperazine-1-carbonyl)cyclohexyl)dibenzo[b,d]furan-2-sulfonamide]
20	C[C@@H](NC(=O)C12CC3CC(C1)C(NS(=O)(=O)c1cnc4c(c1)NCCN4)C(C3)C2)c1ccc(F)cc1 (stereo partly drawn) [Example 262, 4-(1,2,3,4-Tetrahydro-pyrido[2,3-b]pyrazine-7-sulfonylamino)-adamantane-1-carboxylic acid [(R)-1-(4-fluoro-phenyl)-ethyl]-amide]
30	CC(C)(C)OC(=O)N1CCN(C(=O)[C@H]2CC[C@H](NS(=O)(=O)c3ccc4c(c3)oc3ccccc34)CC2)[C@@H](c2ccccc2)C1 [Example 263, (S)-tert-butyl 4-((1r,4S)-4-(dibenzo[b,d]furan-3-sulfonamido)cyclohexanecarbonyl)-3-phenylpiperazine-1-carboxylate]
20	O=C([C@H]1CC[C@H](NS(=O)(=O)c2ccc3c(c2)oc2ccccc23)CC1)N1CCNC[C@@H]1c1ccccc1 [Example 264, N-((1S,4r)-4-((S)-2-phenylpiperazine-1-carbonyl)cyclohexyl)dibenzo[b,d]furan-3-sulfonamide]
39	CCOc1ccc2cc(S(=O)(=O)N[C@H]3CC[C@H](C(=O)N[C@H](COC(=O)[C@@H](N)Cc4ccccc4)c4ccccc4)CC3)ccc2n1 [Example 273, (S)-((S)-2-((1r,4S)-4-(2-ethoxyquinoline-6-sulfonamido)cyclohexanecarboxamido)-2-phenylethyl) 2-amino-3-phenylpropanoate]
18	COC(=O)c1ccc(-c2nc3cc(S(=O)(=O)N[C@H]4CC[C@H](C(=O)N[C@H](C)c5ccccc5)CC4)ccc3[nH]2)cc1 [Example 275, methyl 4-(5-(N-((1R,4r)-4-((R)-1-phenylethylcarbamoyl)cyclohexyl)sulfamoyl)-1H-benzo[d]imidazol-2-yl)benzoate]
< 10	C[C@@H](NC(=O)[C@H]1CC[C@H](NS(=O)(=O)c2ccc3[nH]c(-c4ccc(F)cc4)nc3c2)CC1)c1ccccc1 [Example 276, (1r,4R)-4-(2-(4-fluorophenyl)-1H-benzo[d]imidazole-5-sulfonamido)-N-((R)-1-phenylethyl)cyclohexanecarboxamide]
12	C[C@@H](NC(=O)[C@H]1CC[C@H](NS(=O)(=O)c2ccc3[nH]c(-c4ccncc4)nc3c2)CC1)c1ccccc1 [Example 280, (1r,4R)-N-((R)-1-phenylethyl)-4-(2-(pyridin-4-yl)-1H-benzo[d]imidazole-5-sulfonamido)cyclohexanecarboxamide]
11	C[C@@H](NC(=O)[C@H]1CC[C@H](NS(=O)(=O)c2ccc3[nH]c(-c4cccnc4)nc3c2)CC1)c1ccccc1 [Example 281, (1r,4R)-N-((R)-1-phenylethyl)-4-(2-(pyridin-3-yl)-1H-benzo[d]imidazole-5-sulfonamido)cyclohexanecarboxamide]
